{"source": "patent US9121847B2", "about": "“Three-dimensional microfluidic platforms and methods of use thereof” (Massachussetts Institute of Technology, priority 2008, dated 2015)", "key": {"[1]": {"tested_on": "human dermal microvascular endothelial cells (HMVEC)", "conditions": "for relative normalized length and area change of cell migration: collagen gel polymerized at pH 7.4", "procedure": "Endothelial cell culture. The cell suspension media was prepared with 2×10^6 cells/mL and filled into the cell culturing channel. After filling, the device was kept in the incubator for 30 minutes for cells to settle down and attach on the substrate before the medium was replaced. The cell attachments duration ranges from 30 minutes to several hours depending on the cell types. Human dermal microvascular endothelial cells (HMVEC) were commercially obtained (Lonza, N.J.) and expanded with endothelial growth media (EGM-2MV; Lonza, N.J.) on regular culture flasks pre-coated with collagen I (BD Biosciences, MA) for no more than 9 passages. Recombinant human vascular endothelial growth factor (VEGF; R&D Systems, MN) was mixed with cell culturing media with working concentration of 20 ng/mL and then was filled into the condition channel to generate gradient.\nMeasuring and quantification of cell migration. The device was kept in incubator containing 5% CO2 at 37° C. and cell migration was monitored by phase contrast microscopy (Nikon Instruments, NY) daily. The length and area of migrated cell outlines were measured by ImageJ. Immunofluorescence staining was performed to visualize the final cell migration result. Actin filaments and nuclei were stained with Rhodamine-Phalloidin (Sigma-Aldrich, Switzerland) and DAPI (Sigma-Aldrich, Switzerland), respectively.\nQuantified chemotaxis experiments with endothelial cells. […] Vascular Endothelial Growth Factor-A (VEGF), a known stimulant of endothelial cell migration^23,24 was applied to the condition channel, generating a VEGF gradient in gel scaffold between the cell channel and the condition channel. The control channel was filled with normal cell culture medium without VEGF as a control. […] Length and area changes of migrating cells into collagen scaffolds of different stiffness (pH 7.4 and pH 11) were observed and quantified over several days.\nCells were fixed after 6 days of culture with 5 days of VEGF gradient application, and stained by Rhodamine-Phalloidin and DAPI. White dotted lines indicate the outlines of gel scaffold and small rectangles in scaffold indicate the PDMS posts of 150 μm×150 μm. “0.2%” indicates a collagen concentration of 2.0 mg/mL. […] FIG. 20D is a graph of normalized relative length of migrated cells in the collagen gel scaffold polymerized at pH 7.4 with concentration of 2.0 mg/mL. ‘No VEGF’ serves as the negative control without VEGF gradient. VEGF was applied daily for various durations. ‘VEGF at day 1’ means that VEGF was first applied 1 day after cell seeding. VEGF at day 2 or 3 means VEGF was first applied 2 or 3 days after cell seeding. The relative length is calculated as the difference from the control side. FIG. 20E is a graph of normalized relative area of migrated cells in the collagen gel scaffold polymerized at pH 7.4 with concentration of 2.0 mg/mL. FIGS. 20F and G are graphs of normalized relative length and area of migrated cells in the collagen gel scaffold polymerized at pH 11.0 with concentration of 2.0 mg/mL. All graphs made by average of the value in 4 devices with n=8 (total 8 scaffolds) under one condition.\nTo evaluate the sensitivity of this assay, VEGF was applied to the condition channel 1, 2 or 3 days after cell seeding. […] For the normalized values, the measured data were normalized to their own baseline data at the initial time point (Eq. 1). Relative normalized values were assessed as the difference between the normalized data of the condition side and the control side. […]"}, "[2]": {"assay": "Dextran diffusion from condition channel to cell channel through collagen gel scaffold, three-channel device", "format": "physicochemical", "conditions": "40 kDa dextran; for time of initial diffusion from condition channel through scaffold to cell channel: 0.5 μg/mL, collagen 2.0 mg/mL polymerized at pH 7.4", "source_text": "Media exchange, dextran diffusion experiments and flow application. The filled media should be kept as droplets on inlets and outlets to avoid evaporation of the media. Aspirating an existing droplet and adding a new droplet of media on one side can generate micro flow due to capillary force to replace the old media in the channel with minimal shear stress on the cells. To apply mechanical angiogenic factors such as fluid shear stress or pressure gradient, fluidic circuits consisting of tubes and pumps can be connected to inlets and outlets of the device to apply precisely controlled flow. […] The diffusion profile was taken by fluorescence microscope (Nikon Instruments, NY) and analyzed by Matlab to get the intensity graph from images. […] Stable and linear gradient was achieved and maintained for several hours. […] The collagen scaffold used had 2.0 mg/mL concentration polymerized at pH 7.4.\nEquilibrium was established after several hours and a linear concentration profile was maintained for 10 hours."}, "[3]": {"tested_on": "U87MG cells", "assay": "Microfluidic chemotaxis evaluation of U87MG cells with hEGF gradient", "format": "cell-based, human", "conditions": "20 or 200 ng/mL hEGF in condition channel; collagen scaffold"}, "[4]": {"conditions": "collagen scaffolds polymerized at pH 11.0 (stiff gels)"}}, "note": "Read-outs that look alike come from different tables or passages of the source."}
{"substance": "VEGF", "values": [{"measurement": "relative normalized length and area change of cell migration", "setting": "[1]; VEGF added 3 days after cell seeding", "value": "did not"}, {"measurement": "relative normalized length and area change of cell migration", "setting": "[1]; VEGF applied 1 day after cell seeding", "value": "induced cell migration"}, {"measurement": "relative normalized length and area change of cell migration", "setting": "[1]; VEGF applied 2 days after cell seeding", "value": "induced cell migration"}, {"measurement": "relative normalized values of the area change", "setting": "[1]; [4]", "value": "too small to be detected"}, {"measurement": "relative normalized values of the length change", "setting": "[1]; [4]", "value": "significant differences of cell migration"}]}
{"substance": "dextran", "values": [{"measurement": "time of initial diffusion from condition channel through scaffold to cell channel", "setting": "[2]", "value": 30, "unit": "min"}, {"measurement": "time of initial diffusion from condition channel through scaffold to cell channel", "setting": "[2]; listed as Dextran", "value": "≤ 30", "unit": "min"}, {"measurement": "duration for which linear concentration profile was maintained", "setting": "[2]; collagen gel scaffold, after equilibrium", "value": 10, "unit": "h"}]}
{"substance": "hEGF: human epidermal growth factor (NSDSECPLSHDGYCLHDGVCMYIEALDKYACNCVVGYIGERCQYRDLKWWELR; UniProt P01133 971-1023, looked up)", "values": [{"measurement": "migration speed of U87MG cells, condition side vs control side", "setting": "[3]", "value": "higher than that of the control side"}]}
